Data on twelve compounds can be found in US11965039B2, “Compstatin analogues and their medical uses” (priority 2018, dated 2024).

Molecules are shown by their SMILES. Starred links: 1 amine or outer side, 2 acyl side, 3 side chain; linkers in the order of their positions; H or OH if unused. Positions of bridges follow the written chain, without caps; N, C: chain ends. Non-standard residues stand in square brackets, D forms with d. Residues, ends and D or L forms follow the SMILES beside them. Groups on a side chain read outwards from the residue. *: point of attachment. C20 diacid = O=C(O)CCCCCCCCCCCCCCCCCCC(=O)*; Trp(1-Me) = Cn1cc(C[C@H](N)C(=O)O)c2ccccc21; C18 diacid = O=C(O)CCCCCCCCCCCCCCCCC(=O)*; C16 diacid = O=C(O)CCCCCCCCCCCCCCC(=O)*; γGlu = O=C(O)[C@H](CCC(=O)[*:2])N[*:1]; AEEA = NCCOCCOCC(=O)O; Sar = CNCC(=O)O

The IC50 is the concentration at which inhibition is half-maximal.

The test system of the first assay is classical complement pathway. Kind of assay: In vitro haemolysis assay (inhibition of classical complement pathway). The assay is classed as cell-based, human. The note with it: Table 5, different residues at position 3 of Ac-IC(1)XWQDWGEHRC(1)T-NH2; read-out: IC50, CP hemolysis. The method in brief: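 Compound dilutions preincubated 15 min at room temperature with diluted human serum (titrated per batch for 70-90% maximal haemolysis), then antibody-sensitized sheep RBC (10^7/well) added for 30 min at 37 °C in Tris/casein buffer, pH 7.4. Stopped with EDTA; haemolysis read at 405 nm; IC50 by 4PL fit.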
As for `CC[C@H](C)[C@H](NC(C)=O)C(=O)N[C@H]1CSSC[C@@H](C(=O)N[C@H](C(N)=O)[C@@H](C)O)NC(=O)[C@H](CCCNC(=N)N)NC(=O)[C@H](Cc2c[nH]cn2)NC(=O)[C@H](CCC(=O)O)NC(=O)CNC(=O)[C@H](Cc2c[nH]c3ccccc23)NC(=O)[C@H](CC(=O)O)NC(=O)[C@H](CCC(N)=O)NC(=O)[C@H](Cc2c[nH]c3ccccc23)NC(=O)[C@H](C(C)C)NC1=O` [A, reference compound] (Ac-ICVWQDWGEHRCT-NH2; disulfide 2-12), the IC50 came out at 350 nM.

The same assay, now with this note: human serum, sensitized sheep red blood cells; Table 2; read-out: CP hemolysis IC50.
Take `CC[C@H](C)[C@H](NC(C)=O)C(=O)N[C@H]1CSSC[C@@H](C(=O)N[C@H](C(N)=O)[C@@H](C)O)NC(=O)[C@H](CCCNC(=N)N)NC(=O)[C@H](Cc2c[nH]cn2)NC(=O)[C@H](C)NC(=O)CNC(=O)[C@H](Cc2c[nH]c3ccccc23)NC(=O)[C@H](CC(=O)O)NC(=O)[C@H](CCC(N)=O)NC(=O)[C@H](Cc2c[nH]c3ccccc23)NC(=O)[C@H](C(C)C)NC1=O` [Compound 4W9A, reference compound]: the IC50 worked out at 250 nM.

The assay is the same for the next values; noted with them: human serum, sensitized sheep red blood cells; Table 3, given as upper bounds; read-out: IC50, inhibition of hemolysis.
For the compound `CC[C@H](C)[C@@H]1NC(=O)[C@@H](NC(=O)[C@H](Cc2ccccc2)NC(=O)[C@H](CCC(=O)O)NC(=O)[C@H](CO)NC(C)=O)CSSC[C@@H](C(=O)N(C)CC(=O)N[C@@H](CCC(=O)O)C(=O)NCCOCCOCC(=O)NCCOCCOCC(=O)N[C@@H](CCCCNC(=O)CC[C@H](NC(=O)CNC(=O)CC[C@H](NC(=O)CCCCCCCCCCCCCCCCC(=O)O)C(=O)O)C(=O)O)C(N)=O)NC(=O)[C@H](CCCNC(=N)N)NC(=O)[C@H](Cc2c[nH]cn2)NC(=O)[C@H](CCC(=O)O)NC(=O)CN(C)C(=O)[C@H](Cc2c[nH]c3ccccc23)NC(=O)[C@H](CC(=O)O)NC(=O)[C@H](CCC(N)=O)NC(=O)[C@H](Cc2cn(C)c3ccccc23)NC1=O` [Compound 144, Ac-SEFC(1)I[1-Me-Trp]QDW[Sar]EHRC(1)[Sar]E[Peg3][Peg3]-K([17-carboxy-heptadecanoyl][γGlu]G[γGlu])-NH2] (Ac-SEFCI[Trp(1-Me)]QDW[Sar]EHRC[Sar]E[AEEA][AEEA]K([γGlu-Gly-γGlu-C18 diacid])-NH2; disulfide 4-14), the IC50 was under 100 nM.

As for `CC[C@H](C)[C@H](NC(C)=O)C(=O)N[C@H]1CSSC[C@@H](C(=O)N[C@H](C(=O)N[C@@H](CCC(=O)O)C(=O)NCC(=O)N[C@@H](CCCCNC(=O)COCCOCCNC(=O)COCCOCCNC(=O)CC[C@H](NC(=O)CCCCCCCCCCCCCCCCCCC(=O)O)C(=O)O)C(N)=O)[C@@H](C)O)NC(=O)[C@H](CCCNC(=N)N)NC(=O)[C@H](Cc2c[nH]cn2)NC(=O)[C@H](CCC(=O)O)NC(=O)CNC(=O)[C@H](Cc2c[nH]c3ccccc23)NC(=O)[C@H](CC(=O)O)NC(=O)[C@H](CCC(N)=O)NC(=O)[C@H](Cc2c[nH]c3ccccc23)NC(=O)[C@H]([C@@H](C)CC)NC1=O` [Compound 98] (Ac-ICIWQDWGEHRCTEGK([AEEA-AEEA-γGlu-C20 diacid])-NH2; disulfide 2-12), the IC50 is under 500 nM.

Regarding `CC[C@H](C)[C@@H]1NC(=O)[C@@H](NC(=O)CN(C)C(=O)[C@H](CCC(=O)O)NC(=O)[C@H](CO)NC(C)=O)CSSC[C@@H](C(=O)N(C)CC(=O)N[C@@H](CCC(=O)O)C(=O)N[C@@H](C)C(N)=O)NC(=O)[C@H](CCCNC(=N)N)NC(=O)[C@H](Cc2c[nH]cn2)NC(=O)[C@H](CCC(=O)O)NC(=O)CNC(=O)[C@H](Cc2c[nH]c3ccccc23)NC(=O)[C@H](CCC(=O)O)NC(=O)[C@H](CCC(N)=O)NC(=O)[C@H](Cc2cn(C)c3ccccc23)NC1=O` [Compound 90] (Ac-SE[Sar]CI[Trp(1-Me)]QEWGEHRC[Sar]EA-NH2; disulfide 4-14), the IC50 was under 250 nM.

`CC[C@H](C)[C@@H]1NC(=O)[C@@H](NC(=O)CN(C)C(=O)[C@H](CCC(=O)O)NC(=O)[C@H](CO)NC(C)=O)CSSC[C@@H](C(=O)N[C@H](C(=O)N[C@@H](CCC(=O)O)C(=O)N[C@@H](C)C(N)=O)[C@@H](C)O)NC(=O)[C@H](CCCNC(=N)N)NC(=O)[C@H](Cc2c[nH]cn2)NC(=O)[C@H](CCC(=O)O)NC(=O)CNC(=O)[C@H](Cc2c[nH]c3ccccc23)NC(=O)[C@H](CC(=O)O)NC(=O)[C@H](CCC(N)=O)NC(=O)[C@H](Cc2cn(C)c3ccccc23)NC1=O` [Compound 82] (Ac-SE[Sar]CI[Trp(1-Me)]QDWGEHRCTEA-NH2; disulfide 4-14): the IC50 is under 100 nM.

In the case of `CC[C@H](C)[C@@H]1NC(=O)[C@@H](NC(=O)[C@@H](NC(=O)[C@H](CCC(=O)O)NC(=O)CNC(=O)[C@H](CCC(=O)O)NC(C)=O)[C@@H](C)CC)CSSC[C@@H](C(=O)N[C@@H](CCC(=O)O)C(=O)NCC(=O)N[C@@H](CCC(=O)O)C(N)=O)NC(=O)[C@H](CCCNC(=N)N)NC(=O)[C@H](Cc2c[nH]cn2)NC(=O)[C@H](CCC(=O)O)NC(=O)CNC(=O)[C@H](Cc2c[nH]c3ccccc23)NC(=O)[C@H](CC(=O)O)NC(=O)[C@H](CCC(N)=O)NC(=O)[C@H](Cc2c[nH]c3ccccc23)NC1=O` [Compound 35] (Ac-EGEICIWQDWGEHRCEGE-NH2; disulfide 5-15), the IC50 was under 500 nM.

Consider `CC[C@H](C)[C@@H]1NC(=O)[C@@H](NC(=O)[C@H](Cc2ccccc2)NC(=O)[C@H](CCC(=O)O)NC(=O)[C@H](CO)NC(C)=O)CSSC[C@@H](C(=O)N[C@H](C(=O)N[C@@H](CCC(=O)O)C(=O)NCC(=O)N[C@@H](CCC(=O)O)C(=O)NCCOCCOCC(=O)NCCOCCOCC(=O)N[C@@H](CCCCNC(=O)CC[C@H](NC(=O)CNC(=O)CC[C@H](NC(=O)CCCCCCCCCCCCCCCCC(=O)O)C(=O)O)C(=O)O)C(N)=O)[C@@H](C)O)NC(=O)[C@H](CCCNC(=N)N)NC(=O)[C@H](Cc2c[nH]cn2)NC(=O)[C@H](CCC(=O)O)NC(=O)CNC(=O)[C@H](Cc2c[nH]c3ccccc23)NC(=O)[C@H](CC(=O)O)NC(=O)[C@H](CCC(N)=O)NC(=O)[C@H](Cc2cn(C)c3ccccc23)NC1=O` [Compound 126] (Ac-SEFCI[Trp(1-Me)]QDWGEHRCTEGE[AEEA][AEEA]K([γGlu-Gly-γGlu-C18 diacid])-NH2; disulfide 4-14), for which the IC50 is under 100 nM.

In the case of `CC[C@H](C)[C@@H]1NC(=O)[C@@H](NC(=O)[C@H](Cc2ccccc2)NC(=O)[C@H](CCC(=O)O)NC(=O)[C@H](CO)NC(C)=O)CSSC[C@@H](C(=O)N(C)CC(=O)N[C@@H](CCC(=O)O)C(=O)NCC(=O)N[C@@H](CCC(=O)O)C(=O)NCCOCCOCC(=O)NCCOCCOCC(=O)N[C@@H](CCCCNC(=O)CC[C@H](NC(=O)CNC(=O)CC[C@H](NC(=O)CCCCCCCCCCCCCCC(=O)O)C(=O)O)C(=O)O)C(N)=O)NC(=O)[C@H](CCCNC(=N)N)NC(=O)[C@H](Cc2c[nH]cn2)NC(=O)[C@H](CCC(=O)O)NC(=O)CNC(=O)[C@H](Cc2c[nH]c3ccccc23)NC(=O)[C@H](CC(=O)O)NC(=O)[C@H](CCC(N)=O)NC(=O)[C@H](Cc2cn(C)c3ccccc23)NC1=O` [Compound 127] (Ac-SEFCI[Trp(1-Me)]QDWGEHRC[Sar]EGE[AEEA][AEEA]K([γGlu-Gly-γGlu-C16 diacid])-NH2; disulfide 4-14), the IC50 is under 100 nM.

For the compound `CC[C@H](C)[C@H](NC(C)=O)C(=O)N[C@H]1CSSC[C@@H](C(=O)N[C@H](C(N)=O)[C@@H](C)O)NC(=O)[C@H](CCCNC(=N)N)NC(=O)[C@H](Cc2c[nH]cn2)NC(=O)[C@H](C)NC(=O)CNC(=O)[C@H](Cc2c[nH]c3ccccc23)NC(=O)[C@H](CC(=O)O)NC(=O)[C@H](CCC(N)=O)NC(=O)[C@H](Cc2c[nH]c3ccccc23)NC(=O)[C@H](C(C)C)NC1=O` [Compound 4W9A, reference compound], the IC50 is under 500 nM.

As for `CC[C@H](C)[C@H](NC(C)=O)C(=O)N[C@H]1CSSC[C@@H](C(=O)N[C@H](C(N)=O)[C@@H](C)O)NC(=O)[C@H](CCCNC(=N)N)NC(=O)[C@H](Cc2c[nH]cn2)NC(=O)[C@H](CCC(=O)O)NC(=O)CNC(=O)[C@H](Cc2c[nH]c3ccccc23)NC(=O)[C@H](CCC(=O)O)NC(=O)[C@H](CCC(N)=O)NC(=O)[C@H](Cc2c[nH]c3ccccc23)NC(=O)[C@H]([C@@H](C)CC)NC1=O` [Compound 16] (Ac-ICIWQEWGEHRCT-NH2; disulfide 2-12), the half-inhibitory concentration (IC50) is under 100 nM.

As for `CC[C@H](C)[C@@H]1NC(=O)[C@@H](NC(=O)[C@H](Cc2ccccc2)NC(=O)[C@H](CCC(=O)O)NC(=O)[C@H](CO)NC(C)=O)CSSC[C@@H](C(=O)N[C@H](C(=O)N[C@@H](CCC(=O)O)C(=O)NCC(=O)N[C@@H](CCC(=O)O)C(=O)NCC(=O)NCC(=O)NCC(=O)N[C@@H](CCCCNC(=O)CC[C@H](NC(=O)CNC(=O)CC[C@H](NC(=O)CCCCCCCCCCCCCCCCC(=O)O)C(=O)O)C(=O)O)C(N)=O)[C@@H](C)O)NC(=O)[C@H](CCCNC(=N)N)NC(=O)[C@H](Cc2c[nH]cn2)NC(=O)[C@H](CCC(=O)O)NC(=O)CNC(=O)[C@H](Cc2c[nH]c3ccccc23)NC(=O)[C@H](CC(=O)O)NC(=O)[C@H](CCC(N)=O)NC(=O)[C@H](Cc2cn(C)c3ccccc23)NC1=O` [Compound 130] (Ac-SEFCI[Trp(1-Me)]QDWGEHRCTEGEGGGK([γGlu-Gly-γGlu-C18 diacid])-NH2; disulfide 4-14), the IC50 was under 100 nM.

Regarding `CC[C@H](C)[C@@H]1NC(=O)[C@@H](NC(=O)[C@H](Cc2ccccc2)NC(=O)[C@H](CCC(=O)O)NC(=O)[C@H](CO)NC(C)=O)CSSC[C@@H](C(=O)N(C)CC(=O)N[C@@H](CCC(=O)O)C(=O)N[C@@H](CCCCN)C(=O)N[C@@H](CCC(=O)NCC(=O)NCC(=O)NCC(=O)N[C@@H](CCCCNC(=O)CC[C@H](NC(=O)CNC(=O)CC[C@H](NC(=O)CCCCCCCCCCCCCCCCC(=O)O)C(=O)O)C(=O)O)C(N)=O)C(=O)O)NC(=O)[C@H](CCCNC(=N)N)NC(=O)[C@H](Cc2c[nH]cn2)NC(=O)[C@H](CCC(=O)O)NC(=O)CNC(=O)[C@H](Cc2c[nH]c3ccccc23)NC(=O)[C@H](CC(=O)O)NC(=O)[C@H](CCC(N)=O)NC(=O)[C@H](Cc2cn(C)c3ccccc23)NC1=O` [Compound 132] (Ac-SEFCI[Trp(1-Me)]QDWGEHRC[Sar]EK[γGlu]GGGK([γGlu-Gly-γGlu-C18 diacid])-NH2; disulfide 4-14), the IC50 is under 100 nM.

Still in this assay, the particulars now being: human serum, sensitized sheep red blood cells; Table 4, valine 3 vs isoleucine 3 pairs; read-out: CP hemolysis IC50.
On to `CC[C@H](C)[C@H](NC(C)=O)C(=O)N[C@H]1CSSC[C@@H](C(=O)N[C@H](C(N)=O)[C@@H](C)O)NC(=O)[C@H](CCCNC(=N)N)NC(=O)[C@H](Cc2c[nH]cn2)NC(=O)[C@H](CCC(=O)O)NC(=O)CNC(=O)[C@H](Cc2c[nH]c3ccccc23)NC(=O)[C@H](CC(=O)O)NC(=O)[C@H](CCC(N)=O)NC(=O)[C@H](Cc2c[nH]c3ccccc23)NC(=O)[C@H](C(C)C)NC1=O` [A, reference compound] (Ac-ICVWQDWGEHRCT-NH2; disulfide 2-12), for which the IC50 turned out to be 350 nM.
